Assay results as given in patent publication US8106152B2, “Antimicrobial composition” (Dairy Australia Limited, priority 2003, dated 2012).
Where two headings read alike, the source gives them in different places. Non-standard residues stand in square brackets, D forms with d. No end group written: not given here. pS = N[C@@H](COP(=O)(O)O)C(=O)O

Legend:
[1] = test system: Streptococcus mutans Ingbritt; experiment: Antibacterial planktonic assay (microplate growth assay); assay type: cell-based; conditions: for MIC: pH 7.20, tested singly or in combination with a 1:1 ratio of zinc or calcium; for inhibition of S. mutans growth: growth pH 7.20, up to concentrations of 300 μM
Procedure: The oral opportunistic pathogen Streptococcus mutans Ingbritt was used in this study as an indicator strain. The antibacterial assay was conducted in 96 well plates and bacterial growth continuously monitored over 40 h, as previously described (Malkoski et al., 2001). Briefly, bacteria were cultured in Todd Hewitt Broth (36.4 g/l) containing Yeast extract (5.0 g/l) and 100 mM potassium phosphate with a pH of 6.3 or 7.2. The bacterial inocula were prepared by diluting exponentially growing cells in growth medium to give 2.7×10^4 viable cells/ml. In the bacterial growth assays test wells contained κ-casein-A(106-169) or κ-casein-B(106-169) at concentrations between 20 and 120 μM. these peptides were also tested in combination with zinc or calcium ions to give ratios of […]:divalent metal ion of 1:1 to 1:4. Synthetic […]κ-casein-A(138-158) and […]κ-casein-B(138-158) peptides were also tested in this assay. The plates were incubated at 37° C. and growth determined by measuring optical density (OD) at 620 nm using an iEMS microplate reader (Labsystems, OY Research Technologies Division).

plaque [2] = conditions: double blind crossover trial, Addy et al., 1980; cited from earlier work
[3] = test system: supragingival dental plaque; experiment: Clinical antiplaque trial, mouthrinse as only oral hygiene, Silness and Loe Plaque Index; assay type: in vivo, human
Excerpt: Ten subjects were recruited for the double-blind, cross-over study. Subjects were recruited from undergraduate students enrolled at the School of Dental Science, The University of Melbourne. The group consisted of 6 females and 4 males with a mean age of 21 years. Subjects were examined prior to the commencement of the trial and all were gauged to be of good health, having dentitions without unrestored carious lesions or evidence of moderate to severe gingivitis. The subjects had not used any dentifrices containing antimicrobial agents prior to commencement of the trial. Approval was obtained from the Human Research Ethics Committee of the University of Melbourne.
At the commencement of the trial, the subjects were instructed to cease all other forms of daily oral hygiene practices and to solely rely on the use of the allocated mouthrinse solution. Four solutions were tested as mouthrinses in this investigation: Solution A: Deionized water. B: 1% (w/v) Kappacin preparation in deionized water. C: 20 mM ZnCl in deionized water. D: 1% (w/v) Kappacin preparation and 20 mM ZnCl in deionized water. The pH of all solutions was adjusted to 6.9±0.1 using KOH. Subjects were instructed to rinse three times daily: morning, mid-day and evening with 15 ml of solution for a duration of one minute. Each trial session was for four days with a clinical evaluation at the end of the trial. The Silness and Loe Plaque Index (PI) was used to evaluate plaque (Silness and Loe, 1964). The gingival area of each tooth surface (distal, buccal, mesial and lingual) was given a score from 0-3. All teeth excluding third molars were scored at the conclusion of the trial. Following each trial session the subjects resumed their normal oral hygiene habits for a minimum of seven days prior to the next trial. Data were analysed using the nonparametric Wilcoxon rank test.

plaque [4] = conditions: mouthrinse, Silness and Loe plaque index, Giertsen et al. (1988); cited from earlier work
[5] = test system: S. mutans Ingbritt biofilm; experiment: Viability of S. mutans cultured as a biofilm in constant depth film fermenter (CDFF); assay type: cell-based, Streptococcus mutans
Procedure: A constant depth film fermenter (CDFF: Wimmpenny, Cardiff University, UK) was used for biofilm formation. The CDFF consists of a stainless steel disc rotating at a constant speed of 3 rpm containing 15 polytetrafluoroethylene (PTFE) pans each of which contain 5 plugs of 4.5 mm in diameter. The plugs were set to 0.4 mm below the surface of the steel disc. Inbuilt scrapers were used to maintain a constant biofilm depth of 0.4 mm. The scrapers are attached so that the stainless steel disc rotates under them; the scrapers are spring loaded so that they are pressed down against the pans. An anaerobic atmosphere was maintained in the CDFF by continuous gassing with 5% CO2 in N2. The CDFF was housed in a modified CO2 incubator, which was used to maintain a constant culture temperature of 37° C. A S. mutans Ingbritt batch culture in Todd Hewitt (35.4 g/l), Yeast Extract (8 g/L) broth (THYE) in exponential growth phase was used to inoculate the CDFF at a flow rate of 30 ml/h for 5 h. The growth media, THYE containing 0.1% (w/v) sucrose, was then pumped into the CDFF at a constant flow rate of 40 ml/h.
At specified times prior to and after treatment with solutions, plugs were removed from the CDFF, washed to remove planktonic bacteria and viable counts were performed to determine bacterial numbers. To assess the effect on cell viability of various solutions growth media addition to the CDFF was suspended for 10 min and replaced by the solution at a flow rate of 30 ml/h. After 10 min growth media addition was resumed. Solutions tested in the CDFF were: 2 mM Tris-HCl pH6.0; 10 mg/ml Kappacin preparation (see above) in 2 mM Tris-HCl pH 6.0; 10 mg/ml Kappacin preparation (see above) and 20 mM ZnCl2 in 2 mM Tris-HCl pH 6.0; 20 mM ZnCl2 in 2 mM Tris-HCl pH 6.0; 2 mM ZnCl2 in 2 mM Tris-HCl pH 6.0 and 0.05% chlorhexidine digluconate in deionized water.

[6] = test system: Streptococcus mutans Ingbritt; conditions: S. mutans, pH 6.28; previous study (Malkoski et al., 2001); cited from earlier work

Compound: [Ca+2].[Cl-].[Cl-] [CaCl2]
- MIC ([1]; S. mutans): NI (No inhibition at concentrations up to 1 mM)
- effect on S. mutans growth ([1]; alone, at concentrations up to 1 mM): no effect

Compound: CC[C@H](C)[C@H](NC(=O)[C@@H](NC(=O)[C@H](CCC(=O)O)NC(=O)[C@@H]1CCCN1C(=O)[C@H](COP(=O)(O)O)NC(=O)[C@H](C)NC(=O)[C@H](CCC(=O)O)NC(=O)[C@H](CC(C)C)NC(=O)[C@@H](NC(=O)[C@H](C)NC(=O)[C@@H](NC(=O)[C@@H](NC(=O)[C@H](CO)NC(=O)[C@H](CCC(=O)O)NC(=O)[C@@H](NC(=O)[C@H](C)N)C(C)C)[C@@H](C)O)C(C)C)[C@@H](C)O)C(C)C)C(=O)N[C@@H](CCC(=O)O)C(=O)N[C@@H](CO)C(=O)N1CCC[C@H]1C(=O)N1CCC[C@H]1C(=O)N[C@@H](CCC(=O)O)C(=O)O [Ser(P)^149κ-casein-B(138-158), Ala Val Glu Ser Thr Val Ala Thr Leu Glu Ala Ser(P) Pro Glu Val Ile Glu Ser Pro Pro]
- calculated MIC ([1]; S. mutans, growth pH 6.28, microplate growth assay): 44 µM
- inhibition of S. mutans growth [1]: no inhibition

Compound: O=C([O-])CC(O)(CC(=O)[O-])C(=O)[O-].O=C([O-])CC(O)(CC(=O)[O-])C(=O)[O-].[Zn+2].[Zn+2].[Zn+2] [Zinc citrate]
- reduction of plaque accumulation (Turesky plaque index) (plaque [2]): 5-8%

Compound: [Cl-].[Cl-].[Zn+2] [ZnCl2]
- plaque accumulation relative to water or other treatments (Wilcoxon rank test, posterior teeth plaque index scores) ([3]; four days mouthrinse as only oral hygiene): significantly (P<0.05) reduced
- decrease in mean whole mouth plaque index scores ([3]; four days, 20 mM zinc chloride mouthrinse): 6%
- decrease in the mean Plaque Index Score of posterior teeth compared with water control ([3]; four days, 15 ml rinse three times daily, 1% (w/v) Kappacin and/or 20 mM ZnCl2, pH 6.9): 9%
- increase in the tooth surfaces with no plaque compared with a water control (plaque [4]): 9%
- decrease in viable cell counts ([5]; 20 mM ZnCl2 in 2 mM Tris-HCl pH 6.0): 92%
- reduction of viable count ([5]; 5 ml of 2 mM ZnCl2 in 2 mM Tris-HCl pH 6.0): ~60%
- MIC ([1]; S. mutans): 200 µM

Compound: [H]/N=C(\N/C(=N/[H])NCCCCCCNC(=N)NC(=N)Nc1ccc(Cl)cc1)Nc1ccc(Cl)cc1 [chlorhexidine digluconate]
- decrease in S. mutans cell viability [5]: 48%
- time after treatment with no significant difference to pre-treatment viability ([5]; 0.05% (w/v) solution): 3.5 h

Compound: AVESTVATLED[pS]PEVIESPP [Ser(P)^149κ-casein-A(138-158)]
- MIC [6]: 26 µM
- MIC ([1]; S. mutans): NI (No inhibition at concentrations up to 1 mM)
- inhibition of S. mutans growth [1]: no inhibition
